Values quoted from earlier work, collected in patent US10568327B1, “Method of controlling phytopathogenic diseases on turfgrass” (Syngenta Crop Protection LLC, priority 2012, dated 2020).
Like-named read-outs stand apart in the source and are kept apart here.

System: creeping bentgrass greens

For CSC(=O)c1cccc2nnsc12 [acibenzolar-S-methyl, S-methyl benzo[1,2,3]thiadiazole-7-carbothioate], the Turf quality (6.1 grams/1,000 square meters, with reduced chlorothalonil rates, creeping bentgrass greens, Fry et al. 2006) is listed as “below standard” and the Turf quality (with chlorothalonil at lower than recommended rate, creeping bentgrass putting greens, Zhang et al. 2005) is listed as “unacceptable”.
